Results published in patent publication US12358925B2, “Targeted ubiquitination degradation BRD4 protein compound, preparation method therefor and application thereof” (CSPC ZHONGQI PHARMACEUTICAL TECHNOLOGY (SHIJIAZHUANG) CO., …, priority 2019, dated 2025).

Key:
[1] = system: acute leukemia cell line RS4; 11; test: MTT proliferation assay, RS4;11 cells; type: cell-based; details: Homo sapiens, 72 h after drug administration
Source text: (§1) Cell lines for test: acute leukemia cell line RS4; 11 and multiple myeloma cell line MM.1S
(§2) Test method: MTT (thiazole blue) method, which was also called MTT colorimetry assay, was a method used to detect cell survival and growth. The principle of the assay was that the succinate dehydrogenase in mitochondria of living cells could reduce the exogenous MTT to water-insoluble blue-purple crystal formazan and deposit it in the cells, while dead cells have no such function. Dimethyl sulfoxide (DMSO) could dissolve formazan in cells, and its light absorption value was measured at 550 nm wavelength by enzyme-linked immunoassay, which could indirectly reflect the number of living cells. Within a certain range of cell numbers, the amount of MTT crystal formation is proportional to the number of cells. This method has been widely used in the activity detection of some biologically active factors, large-scale anti-tumor drug screening, cytotoxicity test, and tumor radiosensitivity determination.
(§3) The concentration gradient of the compound was as follows: 0-25.6 pM-128 pM-640 pM-3.2 nm-16 nM-80 nM-400 nM-2 μM-10 μM; (n=3)
(§4) 72 h after drug administration, 20 μl per well of MTT working solution (5 mg/ml) was added, and incubated at 37° C. for 4 h, centrifuged in plate centrifuge at 1000 rpm/min for 5 min. 180 μl of medium was aspirated and 150 μl DMSO was added in RS4; 11 groups; 200 μl of medium was aspirated and 150 μl DMSO was added in MM.1S group; the mixture was shaken and mixed on microwell shaker, and the bottom of the plate was wiped, and the optical density (OD) was measured at 550 nm by microplate reader. The IC50 of the half inhibitory concentration was calculated by LOGIT method.

[2] = system: multiple myeloma cell line MM.1S; test: MTT proliferation assay, MM.1S cells; type: cell-based; details: Homo sapiens, MM1.S, 72 h after drug administration
Source text: as §1, §2, §3, §4

Compound	IC50 [1]	IC50 [2]
Cc1sc2c(c1C)C(c1ccc(Cl)cc1)=N[C@@H](CC(=O)Nc1ccc(OCCOCCOCCOCCNc3cccc4c3C(=O)N(C3CCC(=O)NC3=O)C4=O)cc1)c1nnc(C)n1-2 (some centres unmarked) [ARV-825, reference compound]	20 to 100 nM	20 to 100 nM
Cc1sc2c(c1C)C(c1ccc(Cl)cc1)=N[C@@H](CC(=O)NN1CCN(C(=O)CCC(=O)Nc3cccc4c3CN(C3CCC(=O)NC3=O)C4=O)CC1)c1nnc(C)n1-2 (stereo partly drawn) [Example 1, 4-(4-(2-((S)-4-(4-chlorophenyl)-2,3,9-trimethyl-6H-thieno[3,2-f][1,2,4]triazolo[4,3-a][1,4]diaza-6-yl)acetamido)piperazin-1-yl)-N-(2-(2,6-dioxpiperazin-3-yl)-1-oxoisoindolin-4-yl)-4-oxobutanamide]	< 20 nM	< 20 nM
Cc1sc2c(c1C)C(c1ccc(Cl)cc1)=N[C@@H](CC(=O)NN1CCN(C(=O)CNc3cccc4c3C(=O)N(C3CCC(=O)NC3=O)C4=O)CC1)c1nnc(C)n1-2 (some centres unmarked) [Example 4]	< 20 nM	< 20 nM
Cc1sc2c(c1C)C(c1ccc(Cl)cc1)=N[C@@H](CC(=O)NN1CCN(C(=O)CCNc3cccc4c3C(=O)N(C3CCC(=O)NC3=O)C4=O)CC1)c1nnc(C)n1-2 (some centres unmarked) [Example 5]	< 20 nM	< 20 nM
Cc1sc2c(c1C)C(c1ccc(Cl)cc1)=N[C@@H](CC(=O)NN1CCN(C(=O)CCOCCOCCNc3cccc4c3C(=O)N(C3CCC(=O)NC3=O)C4=O)CC1)c1nnc(C)n1-2 (some centres unmarked) [Example 8]	20 to 100 nM	< 20 nM
Cc1sc2c(c1C)C(c1ccc(Cl)cc1)=N[C@@H](CC(=O)NN1CCN(C(=O)CCOCCOCCOCCNc3cccc4c3C(=O)N(C3CCC(=O)NC3=O)C4=O)CC1)c1nnc(C)n1-2 (some centres unmarked) [Example 9]	< 20 nM	20 to 100 nM
Cc1sc2c(c1C)C(c1ccc(Cl)cc1)=N[C@@H](CC(=O)NN1CCN(C(=O)CNc3cccc4c3CN(C3CCC(=O)NC3=O)C4=O)CC1)c1nnc(C)n1-2 (some centres unmarked) [Example 11]	< 20 nM	< 20 nM
Cc1sc2c(c1C)C(c1ccc(Cl)cc1)=N[C@@H](CC(=O)NN1CCN(C(=O)CCNc3cccc4c3CN(C3CCC(=O)NC3=O)C4=O)CC1)c1nnc(C)n1-2 (some centres unmarked) [Example 12]	< 20 nM	< 20 nM
Cc1sc2c(c1C)C(c1ccc(Cl)cc1)=N[C@@H](CC(=O)NN1CCN(C(=O)COc3cccc4c3C(=O)N(C3CCC(=O)NC3=O)C4=O)CC1)c1nnc(C)n1-2 (some centres unmarked) [Example 15]	< 20 nM	< 20 nM
Cc1sc2c(c1C)C(c1ccc(Cl)cc1)=N[C@@H](CC(=O)N1CCN(NC(=O)CCC(=O)Nc3cccc4c3CN(C3CCC(=O)NC3=O)C4=O)CC1)c1nnc(C)n1-2 (some centres unmarked) [Example 16]	< 20 nM	< 20 nM
Cc1sc2c(c1C)C(c1ccc(Cl)cc1)=N[C@@H](CC(=O)N1CCN(NC(=O)CNc3cccc4c3C(=O)N(C3CCC(=O)NC3=O)C4=O)CC1)c1nnc(C)n1-2 (some centres unmarked) [Example 19]	< 20 nM	< 20 nM
Cc1sc2c(c1C)C(c1ccc(Cl)cc1)=N[C@@H](CC(=O)N1CCN(NC(=O)CCNc3cccc4c3C(=O)N(C3CCC(=O)NC3=O)C4=O)CC1)c1nnc(C)n1-2 (some centres unmarked) [Example 20]	< 20 nM	< 20 nM
Cc1sc2c(c1C)C(c1ccc(Cl)cc1)=N[C@@H](CC(=O)N1CCN(NC(=O)CNc3cccc4c3CN(C3CCC(=O)NC3=O)C4=O)CC1)c1nnc(C)n1-2 (some centres unmarked) [Example 26]	20 to 100 nM	20 to 100 nM
Cc1sc2c(c1C)C(c1ccc(Cl)cc1)=N[C@@H](CC(=O)NNC(=O)CCC(=O)Nc1cccc3c1CN(C1CCC(=O)NC1=O)C3=O)c1nnc(C)n1-2 (some centres unmarked) [Example 31]	20 to 100 nM	20 to 100 nM
Cc1sc2c(c1C)C(c1ccc(Cl)cc1)=N[C@@H](CC(=O)OC(C)(C)C)c1nnc(C)n1-2 [JQ1, tert-butyl(S)-2-(4-(4-chlorophenyl)-2,3,9-trimethyl-6H-thieno[3,2-f][1,2,4]triazolo[4,3-a][1,4]diazepine-6-yl)acetate, reference compound]	≥ 100 nM	≥ 100 nM
Cc1sc2c(c1C)C(c1ccc(Cl)cc1)=N[C@@H](CC(=O)NCCCCNC(=O)COc1cccc3c1C(=O)N(C1CCC(=O)NC1=O)C3=O)c1nnc(C)n1-2 (some centres unmarked) [dBET1, reference compound]	≥ 100 nM	≥ 100 nM
